Patent US10730874B2 (Shire Human Genetic Therapies, Inc., priority 2018, dated 2020)

The compounds below were run against human activated kallikrein enzyme (plasma kallikrein) (Homo sapiens (Human), UniProt P03952) (assay: Inhibition of human activated plasma kallikrein, fluorogenic peptide substrate assay, 500 pM enzyme format). Settings: 500 pM activated kallikrein enzyme, 300 uM Pro-Phe-Arg-7-amido-4-methylcoumarin substrate, 30 min preincubation, 10 min at RT; read-out: Primary Dose Response Assay: Average EC50.
Chain of human activated kallikrein enzyme (plasma kallikrein) (P03952 391-638): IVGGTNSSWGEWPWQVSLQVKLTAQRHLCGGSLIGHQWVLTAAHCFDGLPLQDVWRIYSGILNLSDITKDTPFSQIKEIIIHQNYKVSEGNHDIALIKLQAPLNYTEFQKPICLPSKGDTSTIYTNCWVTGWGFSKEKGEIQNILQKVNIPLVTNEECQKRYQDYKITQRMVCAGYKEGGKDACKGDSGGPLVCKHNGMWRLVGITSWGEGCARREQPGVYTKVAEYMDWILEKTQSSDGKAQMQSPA
Chain of human activated kallikrein enzyme (plasma kallikrein) (P03952 20-390 partner): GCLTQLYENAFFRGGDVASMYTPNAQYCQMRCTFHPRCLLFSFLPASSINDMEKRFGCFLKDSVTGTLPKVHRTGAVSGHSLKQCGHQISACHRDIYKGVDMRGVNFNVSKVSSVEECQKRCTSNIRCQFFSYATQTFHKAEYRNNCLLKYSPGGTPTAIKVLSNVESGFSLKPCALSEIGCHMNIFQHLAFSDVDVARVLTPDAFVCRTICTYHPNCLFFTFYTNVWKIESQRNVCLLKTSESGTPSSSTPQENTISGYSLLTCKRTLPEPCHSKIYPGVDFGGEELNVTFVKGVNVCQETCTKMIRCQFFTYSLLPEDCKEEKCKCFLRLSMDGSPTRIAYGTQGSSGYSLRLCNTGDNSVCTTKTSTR
Format: biochemical
Method in brief: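 Buffer 20 mM Tris pH 7.5, EDTA, NaCl, PEG-400, Triton X-100; 300 uM Pro-Phe-Arg-AMC; enzyme–inhibitor preincubation 30 min RT. Format one: 500 pM kallikrein, 10 min RT reaction; format two: 5 pM kallikrein, 18 h RT reaction. Fluorescence read at 460 nm (380 nm excitation).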

EC50 [nM] | Structure (SMILES)
< 1 | CC(C)(O)c1cc(C2CC2)cn2cc(Cn3cc(C(=O)NCc4ncn5ccc(Cl)cc45)cn3)nc12 [Example I-104b, N-((7-chloroimidazo[1,5-a]pyridin-1-yl)methyl)-1-((6-cyclopropyl-8-(2-hydroxypropan-2-yl)imidazo[1,2-a]pyridin-2-yl)methyl)-1H-pyrazole-4-carboxamide]
< 1 | O=C(NCc1ncn2ccc(Cl)c(F)c12)c1cn(Cc2cn3cc(C4CC4)cc(Cc4nnco4)c3n2)nn1 [Example I-210b, 1-((8-((1,3,4-oxadiazol-2-yl)methyl)-6-cyclopropylimidazo[1,2-a]pyridin-2-yl)methyl)-N-((7-chloro-8-fluoroimidazo[1,5-a]pyridin-1-yl)methyl)-1H-1,2,3-triazole-4-carboxamide]
100 to 2000 | O=C(NCc1ncn2ccc(Cl)c(F)c12)c1cn(Cc2nc3ccccn3n2)nn1 [Example I-287, 1-([1,2,4]triazolo[1,5-a]pyridin-2-ylmethyl)-N-((7-chloro-8-fluoroimidazo[1,5-a]pyridin-1-yl)methyl)-1H-1,2,3-triazole-4-carboxamide]
< 1 | Cc1ncc(-c2cc(C3CC3)cn3cc(Cn4cc(C(=O)NCc5ncn6ccc(Cl)c(F)c56)nn4)nc23)s1 [Example I-257, N-((7-chloro-8-fluoroimidazo[1,5-a]pyridin-1-yl)methyl)-1-((6-cyclopropyl-8-(2-methylthiazol-5-yl)imidazo[1,2-a]pyridin-2-yl)methyl)-1H-1,2,3-triazole-4-carboxamide]
< 1 | O=C(O)c1cnn(Cc2cc(C3CC3)cn3cc(Cn4cc(C(=O)NCc5ncn6ccc(Cl)c(F)c56)nn4)nc23)c1 [Example I-193, 1-((2-((4-(((7-chloro-8-fluoroimidazo[1,5-a]pyridin-1-yl)methyl)carbamoyl)-1H-1,2,3-triazol-1-yl)methyl)-6-cyclopropylimidazo[1,2-a]pyridin-8-yl)methyl)-1H-pyrazole-4-carboxylic acid]
< 1 | CC(F)c1cc(C2CC2)cn2cc(Cn3cc(C(=O)NCc4ncn5ccc(Cl)c(F)c45)nn3)nc12 (centres unmarked) [Example I-213, N-((7-chloro-8-fluoroimidazo[1,5-a]pyridin-1-yl)methyl)-1-((6-cyclopropyl-8-(1-fluoroethyl)imidazo[1,2-a]pyridin-2-yl)methyl)-1H-1,2,3-triazole-4-carboxamide]
< 1 | O=C(NCc1ncn2ccc(Cl)cc12)c1cn(Cc2cn3cc(C4CC4)ccc3n2)nc1C1CC1C(=O)O (centres unmarked) [Example I-120, 2-(4-(((7-chloroimidazo[1,5-a]pyridin-1-yl)methyl)carbamoyl)-1-((6-cyclopropylimidazo[1,2-a]pyridin-2-yl)methyl)-1H-pyrazol-3-yl)cyclopropane-1-carboxylic acid]
< 1 | O=C(NCc1ncn2ccc(Cl)cc12)c1cnn(Cc2cn3cc(C4CC4)ccc3n2)n1 [Example I-121, N-((7-chloroimidazo[1,5-a]pyridin-1-yl)methyl)-2-((6-cyclopropylimidazo[1,2-a]pyridin-2-yl)methyl)-2H-1,2,3-triazole-4-carboxamide]
10 to 100 | O=C(NCc1ncn2ccc(Cl)c(F)c12)c1cn(Cc2cn3ncccc3n2)nn1 [Example I-290, N-((7-chloro-8-fluoroimidazo[1,5-a]pyridin-1-yl)methyl)-1-(imidazo[1,2-b]pyridazin-2-ylmethyl)-1H-1,2,3-triazole-4-carboxamide]
< 1 | CCOC(=O)C(C)(C)C(O)c1cc(C2CC2)cn2cc(Cn3cc(C(=O)NCc4ncn5ccc(Cl)c(F)c45)nn3)nc12 (centres unmarked) [Example I-241a, ethyl 3-(2-((4-(((7-chloro-8-fluoroimidazo[1,5-a]pyridin-1-yl)methyl)carbamoyl)-1H-1,2,3-triazol-1-yl)methyl)-6-cyclopropylimidazo[1,2-a]pyridin-8-yl)-3-hydroxy-2,2-dimethylpropanoate]
1 to 10 | C#Cc1c(C2CC2)ccc2nc(Cn3cc(C(=O)NCc4ncn5ccc(Cl)cc45)cn3)cn12 [Example I-79, N-((7-chloroimidazo[1,5-a]pyridin-1-yl)methyl)-1-((6-cyclopropyl-5-ethynylimidazo[1,2-a]pyridin-2-yl)methyl)-1H-pyrazole-4-carboxamide]
< 1 | N#Cc1cc(C2CC2)cn2cc(Cn3cc(C(=O)NCc4ncn5ccc(Br)c(F)c45)nn3)nc12 [Example I-131, N-((7-bromo-8-fluoroimidazo[1,5-a]pyridin-1-yl)methyl)-1-((8-cyano-6-cyclopropylimidazo[1,2-a]pyridin-2-yl)methyl)-1H-1,2,3-triazole-4-carboxamide]
< 1 | CCOC(=O)C1(c2cccn3cc(Cn4cc(C(=O)NCc5ncn6ccc(Cl)cc56)cn4)nc23)CC1 [Example I-115, ethyl 1-(2-((4-(((7-chloroimidazo[1,5-a]pyridin-1-yl)methyl)carbamoyl)-1H-pyrazol-1-yl)methyl)imidazo[1,2-a]pyridin-8-yl)cyclopropane-1-carboxylate]
10 to 100 | O=C(O)Cn1c(Cn2cc(C(=O)NCc3ncn4ccc(Cl)c(F)c34)nn2)cc2cc(C3CC3)ccc21 [Example I-244, 2-(2-((4-(((7-chloro-8-fluoroimidazo[1,5-a]pyridin-1-yl)methyl)carbamoyl)-1H-1,2,3-triazol-1-yl)methyl)-5-cyclopropyl-1H-indol-1-yl)acetic acid]
< 1 | CCOC(=O)COc1cc(C2CC2)cn2cc(Cn3cc(C(=O)NCc4ncn5ccc(Cl)c(F)c45)nn3)nc12 [Example I-207, ethyl 2-((2-((4-(((7-chloro-8-fluoroimidazo[1,5-a]pyridin-1-yl)methyl)carbamoyl)-1H-1,2,3-triazol-1-yl)methyl)-6-cyclopropylimidazo[1,2-a]pyridin-8-yl)oxy)acetate]
< 1 | CCn1ncn(-c2cc(C3CC3)cn3cc(Cn4cc(C(=O)NCc5ncn6ccc(Cl)c(F)c56)nn4)nc23)c(=O)c1=O [Example I-242, N-((7-chloro-8-fluoroimidazo[1,5-a]pyridin-1-yl)methyl)-1-((6-cyclopropyl-8-(1-ethyl-5,6-dioxo-5,6-dihydro-1,2,4-triazin-4(1H)-yl)imidazo[1,2-a]pyridin-2-yl)methyl)-1H-1,2,3-triazole-4-carboxamide]
< 1 | O=C(NCc1ncn2ccc(Cl)c(F)c12)c1cn(Cc2cn3nc(C4CC4)cc(N4CCC(C(=O)O)C4)c3n2)nn1 (centres unmarked) [Example I-267, 1-(2-((4-(((7-chloro-8-fluoroimidazo[1,5-a]pyridin-1-yl)methyl)carbamoyl)-1H-1,2,3-triazol-1-yl)methyl)-6-cyclopropylimidazo[1,2-b]pyridazin-8-yl)pyrrolidine-3-carboxylic acid]

Structure (SMILES) | EC50 [nM]
O=C(NCc1ncn2ccc(Cl)cc12)c1cn(Cc2cn3nc(C4CC4)ccc3n2)nn1 [Example I-111, N-((7-chloroimidazo[1,5-a]pyridin-1-yl)methyl)-1-((6-cyclopropylimidazo[1,2-b]pyridazin-2-yl)methyl)-1H-1,2,3-triazole-4-carboxamide] | < 1
O=C(NCc1ncn2ccc(Br)cc12)c1cn(Cc2cn3cc(C4CC4)ccc3n2)nc1C(F)F [Example I-95, N-((7-bromoimidazo[1,5-a]pyridin-1-yl)methyl)-1-((6-cyclopropylimidazo[1,2-a]pyridin-2-yl)methyl)-3-(difluoromethyl)-1H-pyrazole-4-carboxamide] | 1 to 10

Same assay, conditions: comparative compounds (Table II); assay format with 500 pM (500 μM in the source) activated kallikrein; read-out: Primary Dose Response Assay: Average EC50

EC50 [nM] | Structure (SMILES)
100 to 2000 | O=C(NCc1nnc2ccc(Cl)cn12)c1cnn(Cc2cn3cc(C4CC4)ccc3n2)c1 [reference compound]
